# Experimental data as given in patent US20200015478A1, “ANTIBACTERIAL COMPOSITION CONTAINING CARYOLAN-1-OL” (INDUSTRY-ACADEMIC COOPERATION FOUNDATION GYEONGSANG …, priority 2016, published 2020).
# Tested on: Botrytis cinerea
# Assay: Mycelium growth rate of Botrytis cinerea with synthesized caryolan-1-ol vapour from paper disc
# Assay type: cell-based
# Settings: Botrytis cinerea on PDA, 10 μl acetone solution on paper disc, sealed, 27° C., 4 days, FIG. 6
# Protocol: Next, in order to verify the antibacterial activity of the synthesized caryolan-1-ol, PDA (Potato starch 4 g, dextrose 20 g, Agar 20 g with respect to 1 liter) medium was prepared so as to allow 60 mm Petri dishes to have 12 ml space. Botrytis cinerea was inoculated with a radius of 2 mm Based on the concentration at which caryolan-1-ol was completely gaseous, caryolan-1-ol was dissolved in acetone, and then the solution was treated to the paper disc placed on a lid at 10 μl each. After sealing, they were cultured at 27° C., and the growth rate of mycelium was measured for 4 days. The growth rate for the acetone treatment group was determined.
compound,measurement,value
CC12CCCC(O)(C1)C1CC(C)(C)C1CC2 (stereo not shown) [caryolan-1-ol],growth rate of mycelium relative to acetone treatment group,significantly inhibited the growth
